Measured values taken from patent US20070149562A1, “OXOPIPERIDINE DERIVATIVES, PREPARATION AND THERAPEUTIC USE THEREOF” (SANOFI-AVENTIS, priority 2004, published 2007).
Counter-ions that a name gives are not always drawn.

Legend:
human MC4 receptor [1] = molecular target: T1, human MC4 receptor (Homo sapiens, UniProt P32245); experiment: Affinity assay: displacement of [125I]-[Nle4-D-Phe7]-α-MSH binding to cell membranes (SPA); conditions: membranes of CHO-K1 cells expressing human MC4 receptor; radioligand 100 pM; read-out: IC50 with respect to the MC4 receptor
T1 construct: host or cells: CHO-K1
Experimental: This affinity assay is carried out by measuring the binding of [^125I]-[Nle^4-D-Phe^7]-[…]-MSH to cell membranes. The displacement of this radioligand is used to identify inhibitors of the specific binding to recombinant melanocortin receptors.
For this assay, membranes prepared from CHO-K1 cells expressing the human MC4 receptor at high density (Euroscreen) or membranes, that were purchased (Perkin Elmer Life Sciences, Receptor Biology), of HEK-293 cells expressing hMC3 receptors were used. CHO-K1 cells transfected with the hMC4 receptor gene (Euroscreen) are seeded into DMEM/Nutrient Mix F12 culture medium containing 10% foetal calf serum (Biowhittaker), 1% sodium pyruvate, 1% L-glutamine, 1% non-essential amino acids, 0.4 mg/ml geneticin (G418) and 0.5% PenStrep, these products being provided by Gibco/BR1, except the calf serum. At 80% confluency, the cells are scraped off and the cell pellets are frozen at −80° C.
A tube of cells (approximately 70×10^6 cells) is thawed on ice and resuspended in 10 ml of binding buffer [25 mM HEPES, pH 7.0, 1 mM MgCl2, 1.5 mM CaCl2, 100 mM NaCl, 1 mM 1,10-phenanthroline and 1 tablet of Complete™ (protease inhibitor from Roche) in 50 ml of buffer]using a polytron for 20 seconds. The suspension is centrifuged for 20 min at 19 500 rpm at 4° C. The supernatant is discarded and the pellet is resuspended in 5 ml of binding buffer. The amount of proteins present in the sample is assayed using a Bradford test, and the concentration is adjusted to 3 ug/25 ul by dilution in binding buffer.
[^125I]-[Nle^4, D-Phe^7]-[…]-MSH is diluted in binding buffer+0.2% BSA. SPA beads (wheatgerm agglutinin polyvinyltoluene, Amersham Pharmacia Biotech) are hydrated in the binding buffer+0.2% BSA and are then mixed with the cell homogenate so as to obtain 3 μg of cell proteins and 250 ug of beads in 50 ul. […] The nonspecific binding is defined by NDP-DMSH at 10^-7 M. The total binding is measured by the number of counts per minute in the presence of the radioligand alone. […]

human MC4 receptor [2] = molecular target: T1, human MC4 receptor; experiment: Functional assay of agonist activity: cAMP formation; type: cell-based; conditions: CHO-K1 cells expressing human MC4 receptor, 1 hour incubation, read-out: EC50 with respect to the MC4 receptor
Experimental: (§1) A functional assay is used to differentiate between the agonist activity and the antagonist activity. For this, the formation of cyclic adenosine monophosphate (cAMP) generated by activation of the MC3 receptor or of the MC4 receptor is assayed.
CHO-K1 cells, expressing the human MC4 receptor at a moderate density (Euroscreen), are seeded into DMEM/Nutrient Mix F12 culture medium (Gibco/BR1) containing 10% of foetal calf serum, 0.5% sodium pyruvate, 1% L-glutamine, 1% non-essential amino acids, 200 mg/l hygromycin B and 0.5% PenStrep, these products being provided by Gibco/BR1, except the calf serum (Biowhittaker) and hygromycin B (Sigma).
(§2) The compounds to be tested (diluted in 10% DMSO), in an amount of 10 ul at a concentration of 10 times the final concentration, are added to the plates of cells (final volume=100 ul/well). After incubation for 1 hour (37° C., 5% CO2), the amount of cAMP is assayed using Tropix kits (Appelera) according to the supplier's documentation. The intrinsic activity of the compounds is calculated by comparing the stimulation of cAMP by these compounds to the stimulation induced by 30 nM of NDP MSH (maximum of 100%). The EC50 value for the compounds corresponds to the concentration which produces 50% of the maximum stimulation obtained with this compound.

human MC3 receptor = molecular target: T2, human MC3 receptor (Homo sapiens, UniProt P41968); experiment: as above; type: cell-based; conditions: CHO(dhfr-) cells expressing human MC3 receptor, 1 hour incubation, read-out: EC50 with respect to the MC3 receptor
T2 construct: expressed in transfected cells; host or cells: CHO(dhfr-)
Experimental: as §1
CHO(dhfr-) cells expressing the human MC3 receptor are seeded into MEM Eagle culture medium (Sigma) containing 10% of dialysed calf serum, 1% L-glutamine, 1% sodium pyruvate, 20 mg/500 ml L-proline, 0.3 mg/ml Geneticin and 0.5% PenStrep, these products being provided by Gibco/BR1, except for the dialysed calf serum (Cambrex) and the L-proline (Sigma).
as §2

T2 sequence (P41968 whole entry): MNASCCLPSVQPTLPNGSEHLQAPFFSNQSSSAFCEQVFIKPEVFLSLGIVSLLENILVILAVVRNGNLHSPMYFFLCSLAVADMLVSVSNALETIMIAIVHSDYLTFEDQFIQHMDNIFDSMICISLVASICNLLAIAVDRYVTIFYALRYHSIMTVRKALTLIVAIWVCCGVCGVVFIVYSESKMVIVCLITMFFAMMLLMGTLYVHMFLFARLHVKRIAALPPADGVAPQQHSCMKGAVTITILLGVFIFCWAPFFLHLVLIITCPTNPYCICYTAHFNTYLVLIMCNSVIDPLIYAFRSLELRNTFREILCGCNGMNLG
T1 sequence (P32245 whole entry): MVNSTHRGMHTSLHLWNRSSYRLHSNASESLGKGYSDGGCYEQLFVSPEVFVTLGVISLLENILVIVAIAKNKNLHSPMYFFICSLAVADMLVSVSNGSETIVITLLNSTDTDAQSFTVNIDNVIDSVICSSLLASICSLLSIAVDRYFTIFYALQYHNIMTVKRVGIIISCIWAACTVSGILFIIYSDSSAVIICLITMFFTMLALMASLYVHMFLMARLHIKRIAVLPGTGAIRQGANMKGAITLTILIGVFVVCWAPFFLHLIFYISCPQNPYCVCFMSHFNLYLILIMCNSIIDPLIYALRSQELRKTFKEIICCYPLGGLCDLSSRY

SMILES	melting point [°C]	IC50 (human MC4 receptor [1]) [nM]	EC50 (human MC4 receptor [2]) [nM]	EC50 (human MC3 receptor) [nM]
N[C@H]1CC[C@@H](N[C@H](Cc2ccc(Cl)cc2)C(=O)N2CCC(Cn3cncn3)(C3CCCCC3)CC2)CC1 (as salt: HCl) [Compound 12, cis-N-{(1R)-1-(4-chlorobenzyl)-2-[4-cyclohexyl-4-(1H-1,2,4-triazol-1-ylmethyl)piperidin-1-yl]-2-oxoethyl}cyclohexane-1,4-diamine]	159	–	–	–
CS(=O)(=O)N1CCC(N[C@H](Cc2ccc(Cl)cc2)C(=O)N2CCC(Cn3cncn3)(C3CCCCC3)CC2)CC1 (as salt: HCl) [Compound 54, N-{(1R)-1-(4-chlorobenzyl)-2-[4-cyclo-hexyl-4-(1H-1,2,4-triazol-1-ylmethyl)piperidin-1-yl]-2-oxoethyl}-1-(methylsulphonyl)piperidin-4-amine]	> 200	–	–	–
O=C([C@@H](Cc1ccc(Cl)cc1)NC1CCOCC1)N1CCC(Cn2cncn2)(C2CCCCC2)CC1 [Compound 2, N-{(1R)-1-(4-chlorobenzyl)-2-[4-cyclohexyl-4-(1H-1,2,4-triazol-1-ylmethyl)piperidin-1-yl]-2-oxoethyl}tetrahydro-2H-pyran-4-amine]	75	570	60	110
NCC(=O)N[C@H]1CC[C@@H](N[C@H](Cc2ccc(Cl)cc2)C(=O)N2CCC(Cn3cncn3)(C3CCCCC3)CC2)CC1 (as salt: HCl) [Compound 116, N-[cis-4-({(1R)-1-(4-chlorobenzyl)-2-[4-cyclohexyl-4-(1H-1,2,4-triazol-1-ylmethyl)piperidin-1-yl]-2-oxoethyl}amino)cyclohexyl]glycinamide]	128	–	–	–
O=C([C@@H](Cc1ccc(Cl)cc1)NC1CCNCC1)N1CCC(Cn2cncn2)(C2CCCCC2)CC1 (as salt: HCl) [Compound 1, N-{(1R)-1-(4-chlorobenzyl)-2-[4-cyclohexyl-4-(1H-1,2,4-triazol-1-ylmethyl)piperidin-1-yl]-2-oxoethyl}piperidin-4-amine]	255	–	–	–
N[C@H]1CC[C@@H](N[C@H](Cc2ccc(Cl)cc2)C(=O)N2CCC(Cn3cncn3)(C3CCCCC3)CC2)CC1 [Compound 12, cis-N-{(1R)-1-(4-chlorobenzyl)-2-[4-cyclohexyl-4-(1H-1,2,4-triazol-1-ylmethyl)piperidin-1-yl]-2-oxoethyl}cyclohexane-1,4-diamine]	–	200	20	100
O=C([C@@H](Cc1ccc(Cl)cc1)NC1CCNCC1)N1CCC(Cn2cncn2)(C2CCCCC2)CC1 [Compound 1, N-{(1R)-1-(4-chlorobenzyl)-2-[4-cyclohexyl-4-(1H-1,2,4-triazol-1-ylmethyl)piperidin-1-yl]-2-oxoethyl}piperidin-4-amine]	–	250	50	200
